# Literature values in patent US9756853B2, “Solid pesticidal formulation” (priority 2013, dated 2017).
# Details: 20° C.
smiles,measurement,value
CN/C(=N/CC1CCOC1)N[N+](=O)[O-] (stereo not shown) [dinotefuran],solubility in water,40 mg/mL
